Patent US8883415B2, “Aza-benzazolium containing cyanine dyes” (Life Technologies Corporation, priority 1999, dated 2014)

Assays:
double-stranded DNA = assay: Detecting double-stranded DNA in solution (fluorescence microplate reader); assay type: binding; settings: Excitation 530 nm/Emission 560 nm
Description: Samples containing 0.1 ng/mL to 1 microgram/mL double-stranded DNA are prepared in 10 mM Tris-HCl, 1 mM EDTA, pH 7.5. The selected dye of the invention is dissolved in DMSO at a concentration of 1-10 mM and then diluted into the same buffer at a concentration sufficient to achieve final optical densities of 0.1 and 0.01 at 500 nm, 530 nm, 540 nm or 560 nm. Equal volumes (100 microliters each) of DNA sample solution and dye solution at each concentration are combined and mixed gently at room temperature in a microplate well.
Samples are allowed to equilibrate for 5-60 minutes, protected from light, and the fluorescence of the sample is measured using a fluorescence microplate reader. DNA concentration is determined by comparison of the sample fluorescence with a standard curve obtained with that dye for each dye concentration. The sensitivity limit of several dyes in this assay is shown (Table 5).

[1] = system: Jurkat human T-cell leukemia cells; assay: Detection of apoptosis by flow cytometry; assay type: cell-based; settings: 0.1 μM dye; 10 μM camptothecin-induced apoptosis; 30 minutes on ice; 488 nm excitation
Description: A 1 mM solution of Compound 27 in DMSO is prepared. Jurkat human T-cell leukemia cells are treated with 10 μM camptothecin to induce apoptosis. A sample of the cells (1×10^8 cells/mL) is incubated with enough of the Compound 27 stock solution to give a final dye concentration of 0.1 μM, and sufficient propidium iodide to give a final concentration of 1.5 μM. After incubating for 30 minutes on ice, the cell samples are analyzed on a FacsVantage flow cytometer using 488-argon laser excitation, with emission at 530/30 and 675/20. Apoptotic cells are compared to control cells that were incubated with the same final concentration of DMSO used in the staining solution.

Q: `C[n+]1cccc2oc(/C=C3\C=CN(CCC[N+](C)(C)C)c4ccccc43)nc21` [Compound 27] was tested. Which “Sensitivity Limit, High dye concentration (0.1 OD)” value (double-stranded DNA) did it give?
A: Its value is 20 ng/mL.

Q: And the “Sensitivity Limit, Low dye concentration (0.01 OD)” value (double-stranded DNA)?
A: Its value is 0.5 ng/mL.

Q: What about the “Differentiation of apoptotic and normal cells (plot of FL1 versus FL3)” value [1] of the same molecule?
A: The value was “capable of differentiating between apoptotic and normal cells”.
